Results as given in ChEMBL document CHEMBL6153089, “Design, Synthesis, and Biological Evaluation of Thieno[3,2-d]pyrimidine Derivatives as the First Bifunctional PI3Kδ Isoform Selective/Bromodomain and Extra-Terminal Inhibitors” (J Med Chem, 2025).
pIC50: −log10 of the molar value.

Key:
[1] = target: PI3-kinase p110-delta/p85-alpha (Homo sapiens) (UniProt P27986+O00329); experiment: Inhibition of p110delta/p85alpha (unknown origin) at 100 nM incubated for 2 hrs in presence of ATP by ADP-kinaseGlo reagent based assay relative to control; assay type: protein-complex assay
[2] = target: T1, Bromodomain-containing protein 4 (Homo sapiens, UniProt O60885); experiment: Inhibition of His-tagged BRD4-BD1 (unknown origin) at 10 nM incubated for 30 mins by Alphascreen assay relative to control
[3] = target: PI3-kinase p110-delta/p85-alpha (Homo sapiens, UniProt O00329); experiment: Inhibition of p110delta/p85alpha (unknown origin) incubated for 2 hrs in presence of ATP by ADP-kinaseGlo reagent based assay; assay type: protein-complex assay
PI3-kinase p110-delta/p85-alpha, sequence (P27986 whole entry): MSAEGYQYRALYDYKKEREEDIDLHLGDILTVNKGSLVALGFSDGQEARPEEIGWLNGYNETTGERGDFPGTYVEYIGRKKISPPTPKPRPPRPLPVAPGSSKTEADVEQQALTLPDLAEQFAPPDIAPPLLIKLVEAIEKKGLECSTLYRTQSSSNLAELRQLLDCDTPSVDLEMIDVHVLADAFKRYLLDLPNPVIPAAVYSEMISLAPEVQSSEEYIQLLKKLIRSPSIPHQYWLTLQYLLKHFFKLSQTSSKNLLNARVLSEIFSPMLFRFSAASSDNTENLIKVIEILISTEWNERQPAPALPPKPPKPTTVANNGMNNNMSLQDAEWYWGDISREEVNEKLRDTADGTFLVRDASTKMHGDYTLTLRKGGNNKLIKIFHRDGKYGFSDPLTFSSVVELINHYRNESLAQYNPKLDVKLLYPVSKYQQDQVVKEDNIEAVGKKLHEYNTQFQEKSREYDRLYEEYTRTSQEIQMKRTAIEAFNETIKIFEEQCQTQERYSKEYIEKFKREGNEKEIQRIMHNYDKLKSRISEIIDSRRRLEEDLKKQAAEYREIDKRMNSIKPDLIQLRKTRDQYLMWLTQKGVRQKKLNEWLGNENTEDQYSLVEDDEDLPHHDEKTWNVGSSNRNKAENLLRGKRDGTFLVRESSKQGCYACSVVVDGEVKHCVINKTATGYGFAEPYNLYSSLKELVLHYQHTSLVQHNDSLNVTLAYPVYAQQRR
PI3-kinase p110-delta/p85-alpha, sequence (O00329 whole entry): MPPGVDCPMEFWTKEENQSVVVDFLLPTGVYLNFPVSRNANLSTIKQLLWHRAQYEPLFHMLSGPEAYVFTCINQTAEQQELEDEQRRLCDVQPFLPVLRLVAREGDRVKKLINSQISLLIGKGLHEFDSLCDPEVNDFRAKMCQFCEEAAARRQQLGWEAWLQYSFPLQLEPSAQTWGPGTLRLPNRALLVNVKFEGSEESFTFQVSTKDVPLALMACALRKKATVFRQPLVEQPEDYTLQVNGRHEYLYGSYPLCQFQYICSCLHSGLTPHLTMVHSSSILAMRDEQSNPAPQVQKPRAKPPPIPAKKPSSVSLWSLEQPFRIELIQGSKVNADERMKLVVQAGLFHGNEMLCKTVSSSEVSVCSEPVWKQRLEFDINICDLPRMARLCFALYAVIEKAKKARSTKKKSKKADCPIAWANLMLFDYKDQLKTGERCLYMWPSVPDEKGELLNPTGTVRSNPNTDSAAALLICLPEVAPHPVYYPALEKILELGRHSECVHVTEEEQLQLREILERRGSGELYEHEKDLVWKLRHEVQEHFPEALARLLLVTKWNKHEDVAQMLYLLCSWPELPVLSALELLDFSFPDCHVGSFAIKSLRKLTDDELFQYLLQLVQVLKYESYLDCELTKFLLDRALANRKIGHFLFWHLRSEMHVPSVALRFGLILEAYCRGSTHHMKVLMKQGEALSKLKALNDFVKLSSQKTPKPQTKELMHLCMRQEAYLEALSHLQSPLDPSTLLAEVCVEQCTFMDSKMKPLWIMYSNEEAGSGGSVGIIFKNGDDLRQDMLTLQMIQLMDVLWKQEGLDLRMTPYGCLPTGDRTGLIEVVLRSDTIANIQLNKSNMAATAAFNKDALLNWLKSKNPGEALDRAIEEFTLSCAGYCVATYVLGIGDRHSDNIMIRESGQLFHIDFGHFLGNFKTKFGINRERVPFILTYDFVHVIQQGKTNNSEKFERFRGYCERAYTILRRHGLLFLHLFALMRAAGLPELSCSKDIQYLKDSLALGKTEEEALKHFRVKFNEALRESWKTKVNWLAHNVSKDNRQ

[4] = target: T1, Bromodomain-containing protein 4; experiment: Inhibition of His-tagged BRD4-BD1 (unknown origin) incubated for 30 mins in presence of ATP by Alphascreen assay
SU-DHL-6 [5] = experiment: Antiproliferative against activity human SU-DHL-6 cells assessed as inhibition of cell growth incubated for 72 hrs by Celltiter-luminescence analysis; assay type: functional, cell-based; settings: SU-DHL-6, 72 h
SUD4 [6] = experiment: Antiproliferative against activity human SU-DHL-4 cells assessed as inhibition of cell growth incubated for 72 hrs by Celltiter-luminescence analysis; assay type: functional, cell-based; settings: SU-DHL-4, 72 h
SU-DHL-6 [7] = experiment: Antiproliferative against activity human SU-DHL-6 cells assessed as inhibition of cell growth incubated for 72 hrs in presence of 10:1 compound:ABBV-75 by Celltiter-luminescence analysis; assay type: functional, cell-based; settings: SU-DHL-6, 72 h
SUD4 [8] = experiment: Antiproliferative against activity human SU-DHL-4 cells assessed as inhibition of cell growth incubated for 72 hrs in presence of 10:1 compound:ABBV-75 by Celltiter-luminescence analysis; assay type: functional, cell-based; settings: SU-DHL-4, 72 h

| inhibition [1] [%] | inhibition [2] [%] | pIC50 [3] | pIC50 [4] | pIC50 (SU-DHL-6 [5]) | pIC50 (SU-DHL-6 [7]) | Structure (SMILES) | pIC50 (SUD4 [6]) | pIC50 (SUD4 [8]) |
| --- | --- | --- | --- | --- | --- | --- | --- | --- |
| 16.2 | 56.8 |  |  |  |  | C[C@@H](N)C(=O)N1CCN(Cc2cc3nc(-c4cn(C)c(=O)c5[nH]ccc45)nc(N4CCOCC4)c3s2)CC1 |  |  |
| 33.2 | 39.9 | 6.69 | 7.96 |  |  | C[C@H](O)C(=O)N1CCN(Cc2cc3nc(-c4cn(C)c(=O)c5[nH]ccc45)nc(N4CCOCC4)c3s2)CC1 |  |  |
| 0.9 | 35 |  |  |  |  | Cn1cc(-c2nc(N3CCCCC3)c3sc(CN4CCN(CC5CC5)CC4)cc3n2)c2cc[nH]c2c1=O |  |  |
| 6 | 1.4 |  |  |  |  | Cc1c(-c2nc(N3CCOCC3)c3sc(CN4CCN(CC5CC5)CC4)cc3n2)cn(C)c(=O)c1N |  |  |
| 7.7 | 18.1 |  |  |  |  | Cn1cc(-c2nc(N3CCOCC3)c3sc(CN4CCN(CC5CC5)CC4)cc3n2)cc(N)c1=O |  |  |
| 20.1 | 32.6 |  |  |  |  | Cn1cc(-c2nc(N3CCOCC3)c3sc(CN4CCN(C(=O)C(C)(C)O)CC4)cc3n2)c2cc[nH]c2c1=O |  |  |
| 19.5 | 58.2 | 6.33 | 8.11 | 7.28 |  | Cn1cc(-c2nc(N3CCOCC3)c3sc(CN4CCN(CC5CC5)CC4)cc3n2)c2cc[nH]c2c1=O | 6.66 |  |
| 45.7 | 32.7 | 7.02 | 7.82 | 6.57 |  | Cn1cc(-c2nc(N3CCOCC3)c3sc(CN4CCN(S(C)(=O)=O)CC4)cc3n2)c2cc[nH]c2c1=O | 6.18 |  |
|  |  | 7.64 |  | 5.74 | 8.00 | Fc1ccc2[nH]ccc2c1-c1nc(N2CCOCC2)c2sc(CN3CCN(CC4CC4)CC3)cc2n1 | 6.58 | 7.85 |
| 46.9 | 44.2 | 6.97 | 7.96 | 7.10 |  | CC(=O)N1CCN(Cc2cc3nc(-c4cn(C)c(=O)c5[nH]ccc45)nc(N4CCOCC4)c3s2)CC1 | 6.78 |  |
| 16 | 28.2 |  |  |  |  | Cn1cc(-c2nc(N3CCOCC3)c3sc(CN4CCN(C(=O)CN)CC4)cc3n2)c2cc[nH]c2c1=O |  |  |
